Results on six compounds are retold here after US10035971B2, “Method for treating algae” (STAMICARBON B.V., priority 2014, dated 2018).

The subject of one series is wet algae. Kind of series: Algal cell lysis with ionic liquid and oil extraction / transesterification. It counts as cell-based. To be noted: for recovered oil (% of the total algal oil content): wet algae 5 g, water content 85%, cell lysis 80° C. 1 h, hexane added.
The conditions of series [1]: in water; cited from earlier work.

Procedure for wet algae: Cell lysis was performed at 100° C. for 1 h. Hexane was added to favor oil separation. After centrifugation, a three phase system was obtained: an upper hydrophobic layer, containing the oil; a lower phase (solid), due to the precipitated ionic liquid conjugate (ca. 60% of the starting material), and a middle phase, containing water/methanol+conjugate acid+the cell lysis hydrophilic products.
CO2 was added under pressure. Cell lysis was performed at 100° C. for 1 h. At the end of the experiment, hexane was added to favor oil separation. After centrifugation, a two phase system was obtained: an upper hydrophobic layer, containing the oil; a lower phase, containing water, the ionic liquid and the hydrophilic algae products.
The wet algae (5 gr, water content 85%) were added to tetramethylguanidinium hydrogen sulfate (15 gr). Cell lysis was performed at 80° C. for 1 h. At the end of the experiment, hexane was added to favor oil separation. The hydrophobic phase, after hexane evaporation, was analyzed by NMR and GC-MS.
The wet algae (5 g, water content 85%) and methanol (2.5 g) were added to tetramethylguanidinium hydrogensulfate. Cell lysis was performed at 80° C. for 1 h. At the end of the experiment, hexane (5 ml) was added to favor oil separation and the eventual precipitation of the conjugate acid. […] After hexane evaporation, the recovered products were analyzed by NMR and GC.
Cell lysis was performed at 80° C. for 1 h. At the end of the experiment, hexane (5 ml) was added to favor oil separation.
Cell lysis was performed at 80° C. for 1 h. At the end of the experiment, methanol (25 ml) and hexane (5 ml) was added to favor oil separation. […] After separation of the hydrophobic layer, the added inorganic salts and water were removed by centrifugation and distillation, and the recovered liquid was again used for algae extraction. After hexane evaporation, the recovered products were analyzed by NMR and GC.
The wet algae (5 g, water content 85%) were added to 1-ethyl-3-methylimidazolium ethyl sulfate (25 gr). Cell lysis was performed at 80° C. for 1 h. At the end of the experiment, hexane (5 ml) was added to favor oil separation. […] After separation of the hydrophobic layer, water was removed from the aqueous phase and the recovered liquid was again used for algae extraction. After hexane evaporation, the recovered products were analyzed by NMR and GC.
Cell lysis was performed at 80° C. for 1 h. At the end of the experiment, hexane (5 ml) was added to favor oil separation. […] After hexane evaporation, the recovered products were analyzed by NMR and GC.

`CCCC[n+]1ccn(C)c1.[Cl-]` [[BMIM]Cl, 1-methyl-3-butylimidazolium chloride]: in the series on wet algae (Example 9, procedure of Example 1, 100° C. (10 atm for TMG and DBU), IL/Algae/MeOH 5:1:1.5 (5:1 for [BMIM]Cl)), the “Oil extraction (%) with respect the total algal oil content” value is 40-60%. The “recovered oil (% of the total algal oil content)” value in the series with wet algae is 40-60%.
For `CN(C)C(=N)N(C)C` [Tetramethylguanidine (TMG), 1,1,3,3-tetramethylguanidine], in series [1], the pKa water is recorded as 15.2.
Turning to `CC(=O)[O-].CCCCn1cc[n+](C)c1` [[BMIM] Acetate, 1-butyl-3-methylimidazolium acetate], the “recovered oil (% of the total algal oil content)” value with wet algae was found to be 40%.
As to `C1CN2CCN1CC2` [Dabco, triethylenediamine], the pKa water in series [1] was 8.8.
For the compound “1-ethyl-3-methylimidazolium ethyl sulfate [[EMIM] Ethyl Sulfate]”, in the series with wet algae, the “recovered oil (% of the total algal oil content)” value was 50-52%.
In the case of `CN1CCCC1` [N-methylpyrrolidine], the pKa water in series [1] was 10.5.
